Where “and” joins values, the source holds several entries; their conditions need not be identical. Equal entries are not always repeated. Where two headings read alike, the source gives them in different places.
Key:
Assay in all cases: CDK inhibition assay (microfluidic LabChip, IC50 format)
CDK4-CYCLIND1 = CDK4-CYCLIND1 (Homo sapiens, UniProt P11802); conditions: a second value in parentheses for some compounds
Description: Inhibition assays were performed using microfluidic LabChip 300 Drug Discovery System from Caliper Life Sciences. […] The assay has a total volume of 10 μL consisting of 5 μL of enzyme and buffer and 5 μL of substrate and buffer. The test compounds were diluted in 100% dimethylsulfoxide (DMSO) using 3-fold dilution steps. […] Compounds were tested in a single well for each dilution and the final concentration of DMSO was maintained at 1%.
The assay buffer contained 100 mM HEPES, pH 7.5, 0.01% Triton X-100, 0.1% bovine serum albumin (BSA), 5 mM MgCl2; 1 mM dithiothreitol (DTT), 10 μM sodium orthovanadate, and 10 μM β-glycerophosphate.
The assay was conducted by adding 5 μL of enzyme, adenosine triphosphate (ATP) and buffer to an assay plate. A 100 nL aliquot of the diluted compounds were added to the plate. The assay was initiated by the addition of 5 μL of phosphoenolpyruvate substrate (PEP) in buffer. […] The reaction was terminated by the addition of EDTA. The plates were analyzed using a Caliper LabChip 3000.
Additional inhibition assays were performed as described above.
The assays were conducted as described above for the racemates.

CDK6-CYCLIND3 = biological target: T1, CDK6-CYCLIND3 (Homo sapiens, UniProt Q00534); assay type: biochemical; conditions: read-out: CDK6 CyclinD3 IC50
T1 construct: purchased Carna
T1 sequence (Q00534 whole entry): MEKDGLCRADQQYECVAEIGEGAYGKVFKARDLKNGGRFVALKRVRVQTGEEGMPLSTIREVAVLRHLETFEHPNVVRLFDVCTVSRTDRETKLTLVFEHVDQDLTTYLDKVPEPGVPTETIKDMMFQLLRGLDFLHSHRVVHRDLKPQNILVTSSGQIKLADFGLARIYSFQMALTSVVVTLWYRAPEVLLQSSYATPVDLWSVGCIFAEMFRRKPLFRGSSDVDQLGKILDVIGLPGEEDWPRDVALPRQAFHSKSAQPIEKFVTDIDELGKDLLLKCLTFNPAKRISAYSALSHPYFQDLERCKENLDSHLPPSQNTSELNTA
T1 sequence (P30281 whole entry partner): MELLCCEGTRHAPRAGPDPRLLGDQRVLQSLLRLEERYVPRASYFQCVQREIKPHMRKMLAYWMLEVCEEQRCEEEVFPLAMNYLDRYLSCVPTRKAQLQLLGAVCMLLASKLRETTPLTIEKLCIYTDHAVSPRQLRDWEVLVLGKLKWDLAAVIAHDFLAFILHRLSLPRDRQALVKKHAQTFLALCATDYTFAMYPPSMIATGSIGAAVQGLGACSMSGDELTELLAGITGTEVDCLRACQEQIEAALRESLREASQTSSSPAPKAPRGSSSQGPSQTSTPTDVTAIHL

CDK2-CYCLINA = biological target: T2, CDK2-CYCLINA (Homo sapiens, UniProt P24941); assay type: biochemical; conditions: read-out: CDK2 CyclinA IC50
T2 construct: purchased Millipore

CDK7 CyclinH = CDK7 CyclinH (Homo sapiens, UniProt P50613); assay type: biochemical
Chain of CDK7 CyclinH (P50613 whole entry): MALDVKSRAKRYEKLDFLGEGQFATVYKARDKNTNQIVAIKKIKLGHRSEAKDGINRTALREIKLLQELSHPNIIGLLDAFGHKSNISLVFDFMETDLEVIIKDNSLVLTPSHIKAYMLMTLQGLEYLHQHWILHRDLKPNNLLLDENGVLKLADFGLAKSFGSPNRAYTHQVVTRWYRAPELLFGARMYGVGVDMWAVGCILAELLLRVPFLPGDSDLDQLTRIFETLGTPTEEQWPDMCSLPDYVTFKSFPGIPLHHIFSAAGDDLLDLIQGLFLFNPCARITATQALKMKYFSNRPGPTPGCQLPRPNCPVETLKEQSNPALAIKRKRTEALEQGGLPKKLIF
Chain of CDK7 CyclinH (P51946 whole entry partner): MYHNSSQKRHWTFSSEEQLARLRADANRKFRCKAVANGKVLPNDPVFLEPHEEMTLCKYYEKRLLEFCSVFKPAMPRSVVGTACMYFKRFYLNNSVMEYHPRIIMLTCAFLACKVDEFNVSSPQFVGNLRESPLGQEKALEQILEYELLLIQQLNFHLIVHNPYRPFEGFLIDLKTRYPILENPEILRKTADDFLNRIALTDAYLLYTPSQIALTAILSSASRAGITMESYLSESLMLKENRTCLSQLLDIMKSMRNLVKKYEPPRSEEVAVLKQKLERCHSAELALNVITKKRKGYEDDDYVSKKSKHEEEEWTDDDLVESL
Chain of CDK7 CyclinH (P51948 whole entry partner): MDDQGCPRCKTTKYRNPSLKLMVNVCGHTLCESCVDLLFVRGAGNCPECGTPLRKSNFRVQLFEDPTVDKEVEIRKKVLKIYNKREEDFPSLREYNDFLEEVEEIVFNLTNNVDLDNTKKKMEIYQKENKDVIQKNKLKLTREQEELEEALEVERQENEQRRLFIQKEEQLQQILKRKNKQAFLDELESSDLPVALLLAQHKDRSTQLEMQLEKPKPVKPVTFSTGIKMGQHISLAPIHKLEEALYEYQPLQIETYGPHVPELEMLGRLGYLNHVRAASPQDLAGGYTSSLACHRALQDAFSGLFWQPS

CDK9-CYCLINT1 = biological target: T3, CDK9-CYCLINT1 (Homo sapiens, UniProt P50750); assay type: biochemical; conditions: read-out: CDK9 CyclinT1 IC50
T3 construct: purchased Carna
T3 sequence (P50750 whole entry): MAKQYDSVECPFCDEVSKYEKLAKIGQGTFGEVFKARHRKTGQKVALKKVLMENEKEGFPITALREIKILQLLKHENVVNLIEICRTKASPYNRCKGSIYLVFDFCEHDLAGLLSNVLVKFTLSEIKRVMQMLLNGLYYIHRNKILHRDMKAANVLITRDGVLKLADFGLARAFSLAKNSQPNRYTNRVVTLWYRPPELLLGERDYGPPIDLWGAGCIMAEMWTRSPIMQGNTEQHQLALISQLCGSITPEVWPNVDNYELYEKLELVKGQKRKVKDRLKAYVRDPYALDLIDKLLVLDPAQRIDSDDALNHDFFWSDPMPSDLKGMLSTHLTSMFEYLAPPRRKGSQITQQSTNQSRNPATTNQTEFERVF
T3 sequence (O60563 whole entry partner): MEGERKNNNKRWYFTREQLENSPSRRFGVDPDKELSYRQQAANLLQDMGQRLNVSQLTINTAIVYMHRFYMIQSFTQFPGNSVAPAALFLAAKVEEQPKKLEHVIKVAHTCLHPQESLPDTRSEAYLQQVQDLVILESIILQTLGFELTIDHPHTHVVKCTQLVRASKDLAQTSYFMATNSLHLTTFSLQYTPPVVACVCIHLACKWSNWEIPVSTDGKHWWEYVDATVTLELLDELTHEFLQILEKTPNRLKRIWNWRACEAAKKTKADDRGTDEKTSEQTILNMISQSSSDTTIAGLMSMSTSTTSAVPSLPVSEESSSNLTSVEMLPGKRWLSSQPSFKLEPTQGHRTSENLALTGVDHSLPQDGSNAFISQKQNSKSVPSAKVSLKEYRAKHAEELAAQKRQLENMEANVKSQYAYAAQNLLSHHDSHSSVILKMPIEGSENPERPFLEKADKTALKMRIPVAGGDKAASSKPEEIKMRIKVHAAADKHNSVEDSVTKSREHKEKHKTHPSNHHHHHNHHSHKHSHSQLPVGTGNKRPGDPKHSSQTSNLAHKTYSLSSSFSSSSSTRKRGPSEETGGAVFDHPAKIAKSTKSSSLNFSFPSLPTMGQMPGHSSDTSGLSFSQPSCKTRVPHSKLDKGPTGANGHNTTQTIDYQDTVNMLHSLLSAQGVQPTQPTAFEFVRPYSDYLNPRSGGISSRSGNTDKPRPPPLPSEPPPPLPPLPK

[1] = CDK4 CyclinD1 IC50, Table 4b, lower part

Chain of CDK4-CYCLIND1 (P11802 whole entry): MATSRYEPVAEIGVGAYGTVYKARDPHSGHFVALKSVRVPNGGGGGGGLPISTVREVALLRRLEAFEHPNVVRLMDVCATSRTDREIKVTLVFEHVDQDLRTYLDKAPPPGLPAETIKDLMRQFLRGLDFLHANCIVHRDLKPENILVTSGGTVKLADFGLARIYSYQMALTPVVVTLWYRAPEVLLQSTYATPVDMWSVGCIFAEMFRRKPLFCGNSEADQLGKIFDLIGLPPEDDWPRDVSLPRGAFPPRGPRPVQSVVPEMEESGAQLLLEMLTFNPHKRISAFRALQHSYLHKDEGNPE
Chain of CDK4-CYCLIND1 (P24385 whole entry partner): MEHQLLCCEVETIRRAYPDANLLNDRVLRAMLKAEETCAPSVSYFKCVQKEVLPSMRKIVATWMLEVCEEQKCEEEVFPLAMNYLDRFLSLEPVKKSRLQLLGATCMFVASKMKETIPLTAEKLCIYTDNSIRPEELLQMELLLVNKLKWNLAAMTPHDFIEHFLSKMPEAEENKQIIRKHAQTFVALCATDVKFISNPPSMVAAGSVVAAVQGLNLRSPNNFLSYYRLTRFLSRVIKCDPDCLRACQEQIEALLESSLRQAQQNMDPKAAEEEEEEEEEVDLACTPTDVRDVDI

SMILES | IC50 (CDK4-CYCLIND1; CDK4 CyclinD1 IC50, Table 4a) | IC50 (CDK6-CYCLIND3; Table 4a) [nM] | IC50 (CDK2-CYCLINA; Table 4a) [nM] | IC50 (CDK7 CyclinH; Table 4a) [nM] | IC50 (CDK9-CYCLINT1; Table 4a) [nM] | IC50 (CDK4-CYCLIND1; [1]) | IC50 (CDK6-CYCLIND3; Table 4b, lower part) [nM] | IC50 (CDK2-CYCLINA; Table 4b, lower part) [nM] | IC50 (CDK7 CyclinH; Table 4b, lower part) [nM] | IC50 (CDK9-CYCLINT1; Table 4b, lower part) [nM]
CN(C)[C@@H]1CCN(c2ccc(Nc3ncc4c(n3)N(C3CCCC3)C(=O)[C@]3(CCNC3=O)C4)cn2)C1 [Example D175, (S)-8-cyclopentyl-2-((6-((R)-3-(dimethylamino)pyrrolidin-1-yl)pyridin-3-yl)amino)-5,8-dihydro-7H-spiro[pyrido[2,3-d]pyrimidine-6,3′-pyrrolidine]-2′,7-dione] | 1.56 nM and 0.83 nM | 2.6 | 57.1 | 465 | 3.62 | – | – | – | – | –
CN(C)[C@H]1CCN(C(=O)c2ccc(Nc3ncc4c(n3)N(C3CCCC3)C(=O)[C@]3(CCNC3=O)C4)cc2)C1 [Example D177, (S)-8-cyclopentyl-2-((4-((S)-3-(dimethylamino)pyrrolidine-1-carbonyl)phenyl)amino)-5,8-dihydro-7H-spiro[pyrido[2,3-d]pyrimidine-6,3′-pyrrolidine]-2′,7-dione] | 4.72 nM | 13.9 | 50 | 2940 | 19.1 | – | – | – | – | –
O=C1NCC[C@@]12Cc1cnc(Nc3ccc(OCCN4CCCC4)c(F)c3)nc1N(C1CCCC1)C2=O [Example D180, (S)-8-cyclopentyl-2-((3-fluoro-4-(2-(pyrrolidin-1-yl)ethoxy)phenyl)amino)-5,8-dihydro-7H-spiro[pyrido[2,3-d]pyrimidine-6,3′-pyrrolidine]-2′,7-dione] | 1.79 nM | 4.35 | 98.7 | 266 | 2.84 | – | – | – | – | –
O=C1NCC[C@@]12Cc1cnc(Nc3ccc(N4CCC(N5CCOCC5)CC4)cn3)nc1N(C1CCCC1)C2=O [Example D181, (S)-8-cyclopentyl-2-((5-(4-morpholinopiperidin-1-yl)pyridin-2-yl)amino)-5,8-dihydro-7H-spiro[pyrido[2,3-d]pyrimidine-6,3′-pyrrolidine]-2′,7-dione] | – | – | – | – | – | 4.3 nM | 6.79 | 5820 | 40900 | 818
O=C1NCC[C@@]12Cc1cnc(Nc3ccc(N4CCC(N5CCOCC5)CC4)cc3)nc1N(C1CCCC1)C2=O [Example D182, (S)-8-cyclopentyl-2-((4-(4-morpholinopiperidin-1-yl)phenyl)amino)-5,8-dihydro-7H-spiro[pyrido[2,3-d]pyrimidine-6,3′-pyrrolidine]-2′,7-dione] | – | – | – | – | – | < 0.56 nM | < 0.56 | 115 | 591 | 16.2
CN1CCN(c2ccc(Nc3ncc4c(n3)N(C35CC(C3)C5)C(=O)C3(CCNC3=O)C4)cc2F)CC1 (stereo not shown) [Example D183, 8-(bicyclo[1.1.1]pentan-1-yl)-2-((3-fluoro-4-(4-methylpiperazin-1-yl)phenyl)amino)-5,8-dihydro-7H-spiro[pyrido[2,3-d]pyrimidine-6,3′-pyrrolidine]-2′,7-dione] | – | – | – | – | – | 22.9 nM | 66.2 | 2430 | 2340 | 76.8
O=C1NCC[C@@]12Cc1cnc(Nc3ccc(N4CCNCC4)c(F)c3)nc1N(C13CC(C1)C3)C2=O [Example D184, (S)-8-(bicyclo[1.1.1]pentan-1-yl)-2-((3-fluoro-4-(piperazin-1-yl)phenyl)amino)-5,8-dihydro-7H-spiro[pyrido[2,3-d]pyrimidine-6,3′-pyrrolidine]-2′,7-dione] | – | – | – | – | – | 19.6 nM and 11.1 nM | 43.5 | 1400 | 1690 | 46.8
CN1CCN(c2ccc(Nc3ncc4c(n3)N(C35CC(C3)C5)C(=O)[C@]3(CCNC3=O)C4)cc2F)CC1 [Example D185, (S)-8-(bicyclo[1.1.1]pentan-1-yl)-2-((3-fluoro-4-(4-methylpiperazin-1-yl)phenyl)amino)-5,8-dihydro-7H-spiro[pyrido[2,3-d]pyrimidine-6,3′-pyrrolidine]-2′,7-dione] | – | – | – | – | – | 15.6 nM | 31.2 | 1060 | 1170 | 36.7

From patent publication US20230048132A1, “CYCLIN-DEPENDENT KINASE INHIBITORS” (SPV THERAPEUTICS INC., priority 2018, published 2023)
